Data: US20240174697A1, “PH-ACTIVABLE FLUORESCENT PROBES FOR TARGETING CELL ORGANELLES” (Purdue Research Foundation, priority 2021, published 2024)
“Also recorded” adds a separate entry of the source.

Key:
[1] = Absorption and fluorescence spectra at different pH solutions, pKa; format: physicochemical; conditions: in a mixture of DMSO: acetonitrile
[2] = Solubility in aqueous medium / pH solutions; format: physicochemical
BV2 microglia [3] = assay: MTT assay, metabolic activity of BV2 microglia; format: cell-based, mouse; conditions: 24 hours
Method: (§1) The dried fluorescent probes powders were resuspended in cell grade DMSO to prepare 5 mM stock solutions. This stock was used to make a 1, 5, or 10 μM dilution of the probe in cell culture media. The diluted probe solutions were filtered through 0.22 µm filters before adding to the cells.
Murine microglial BV2 cells (10,000 cells/well) were seeded in a 96 well plate and cultured for 24 hours at 37° C. in a 5% CO2 incubator. Next day, the media was aspirated, and the cells were rinsed twice with PBS (pH 7.4) followed by treatment with 1, 5, or 10 μM of the probe solution made in DMSO (final DMSO concentration=0.05%) for 24 hours in the incubator. Next, the media was aspirated and 20 μL of 5 mg/mL 3-(4,5dimethylthiazol-2-yl)-2,5-diphenyltetrazolium bromide (MTT) solution was added to the cells and then incubated for three hours. The MTT solution was then removed and 100 μL DMSO was added to dissolve the violet formazan crystals. The plate was shaken for 5 minutes using an orbital shaker. The absorbance value at 450 nm was recorded and the percent cell metabolic activity was calculated as the ratio of sample absorbance to control absorbance.

BV2 microglia [4] = assay: LDH cytotoxicity assay on BV2 microglia; format: cell-based, mouse; conditions: BV2
Method: as §1
The cytotoxicity of the fluorescent probes was determined using the Invitrogen™ CyQUANT™ LDH Cytotoxicity Assay kit which measures the release of Lactate dehydrogenase (LDH) from the dead and dying cells. The assay was performed per the manufacturer's protocol. Briefly, BV2 cells (5000 cells/100 μL/well) were seeded in a 96 well plate and cultured for 24 hours at 37° C. in a 5% CO2 incubator. After 24 hours, the media was removed, and the cells were treated with 1, 5, or 10 μM of the probes for 2 or 24 hours of incubation. Three additional wells were treated with the given lysis buffer for 45 minutes (positive control). After the corresponding incubation period, the total LDH release was measured using a fluorescent plate reader. The cells without any probe treatment correspond to spontaneous LDH release and were taken as negative control and the cells treated with the lysis buffer correspond to maximum LDH release. The percentage cytotoxicity of the probes was determined as follows: […]

BV2 microglia [5] = assay: Cellular uptake of the fluorescent probes; format: in vitro ADME, mouse; conditions: 2 hour treatment, 10 μM, BV2
Method: FIG. 7 describes percent uptake efficiency of the fluorescent probes in BV2 microglia. Cellular uptake of the probe at different concentrations after two hours of incubation. The % uptake efficiency was determined as the percentage of probe taken up by cells out of the total amount of probe in the initial incubation solution. Bars depict n=3 data with SD.
Cellular uptake of the florescent probes was determined in-vitro as following: BV2 cells (20,000 cells/well) were seeded in a 96 well plate and cultured overnight at 37° C. in a 5% CO2 incubator. Next day, the media was removed, and the cells were treated with 1, 5, or 10 μM of the probes for 2 hours. After incubation, the supernatant was collected, and the absorbance was recorded at the respective absorbance maxima of the probe. This was compared with absorbance of the probe in media without cells. The percent cellular uptake was calculated as percentage of […]:
% Uptake Efficiency=1-[Asupernatant×100/Aprobe]

primary mouse microglia [6] = assay: Flow cytometry analysis of probe fluorescence in live cells; format: cell-based; conditions: co-staining with MitoLite dye
Excerpt: FIGS. 3A-3E. […] Modal corresponds to a percentage of the maximum count. […] US Ctrl is unstained control. Gating strategy and flow plots with commercial dyes in supporting information.
A detailed protocol for the isolation and culture of primary microglia from adult mouse brains is previously described^2. Briefly, CD11^+ primary microglia were isolated from adult C57BL/6 mice aged 5-7 months of age (both male and female sexes) and cultured as follows. Mice were euthanized with CO2 following the PACUC guidelines, perfused brains were removed and cut into small pieces before homogenizing them in DPBS++with 0.4% DNase-I on the tissue dissociator at 37° C. After filtering the cells through a 70 μm filter, myelin was removed two times, first using gradient centrifugation with Percoll PLUS reagent followed by the use of myelin removal beads on the magnetic column separators. After myelin removal, CD11^+ cells were selected from the single cell suspension using the CD11^+ beads as per the manufacturer's instructions. […]
Primary mouse microglia were treated with 1, 5, or 10 μM fluorescent probes for 2 hours for the cells to uptake the probe. […] Around 10-20 thousand cells were gated from the live cells in order to analyze the cellular fluorescence signal corresponding to the LysoShine/Lysotracker or Mitoshine/MitoLite probes.

[7] = Absorption and fluorescence spectra at different pH solutions, pKa; format: physicochemical
Method: Spectrum recorded at room temperature in PBS buffer at varying pH with 1% (v/v) of DMSO, in all cases probe concentration=10 μM.
Next, we investigated the absorption and fluorescent properties of LysoShine 1, LysoShine 2, and MitoShine (FIG. 2). The LysoShine 1 in different pH solutions of phosphate buffer (1% DMSO in 1M PBS) has an absorption centered around 500 nm and emission maximum at 505 nm with 480 nm excitation. […] We tested the mitochondrial targeting property of MitoShine (max. absorption 505 nm, max. emission 535 nm, excitation 480 nm). […] We also tested the photophysical property of the important synthetic intermediate compound 10 (absorption maximum 505 nm, max, emission 510 nm at excitation 480 nm).

primary mouse microglia [8] = assay: Confocal imaging, localization of probes in primary microglia; format: cell-based; conditions: 10 μM probe 2 hours, co-staining LysoTracker / MitoLite / DAPI
Method: A detailed protocol for the isolation and culture of primary microglia from adult mouse brains is previously described^2. Briefly, CD11^+ primary microglia were isolated from adult C57BL/6 mice aged 5-7 months of age (both male and female sexes) and cultured as follows. Mice were euthanized with CO2 following the PACUC guidelines, perfused brains were removed and cut into small pieces before homogenizing them in DPBS++with 0.4% DNase-I on the tissue dissociator at 37° C. After filtering the cells through a 70 μm filter, myelin was removed two times, first using gradient centrifugation with Percoll PLUS reagent followed by the use of myelin removal beads on the magnetic column separators. After myelin removal, CD11^+ cells were selected from the single cell suspension using the CD11^+ beads as per the manufacturer's instructions. The CD11^+ cells were finally resuspended in microglia growth media, further diluted in TIC (TGF-β, IL-34, and cholesterol containing) media containing 2% FBS before seeding 0.1×10^6 cells/500 μL/well of a 24-well plate. The cells were maintained at 37° C. and 10% CO2 with half-media change every other day until the day of compound treatment (around 12-14 div). For confocal imaging experiments, around 50,000 cells/2 mL cells were sub-cultured at the center of 35 mm glass-bottom imaging dishes (FluoroDish™ #FD35).
The localization of the fluorescent probes was visualized using confocal microscopy. The cells were incubated with 10 μM probe for 2 hours and then the media was aspirated. The cells were then incubated with 100 nM LysoTracker (1 mM stock from Thermo #L7528) or with 0.5x MitoLite (1000-fold dilution from 500x stock of AAT Bioquest #22678) for 1.5 hours. The media was aspirated, and the cells were fixed with 4% paraformaldehyde for 10 mins followed by nuclear staining with 1 μM/mL DAPI for 5 mins. For BV2 microglia grown on glass coverslips, the coverslips were removed from the wells and transferred to glass slides with a drop of anti-fade reagent (Thermo Fisher Scientific #P36930). […]

SMILES | pH at which significant fluorescence is shown [1] | solubility in aqueous medium ([2]; aqueous medium) | solubility in DMSO: acetonitrile ([2]; mixture of DMSO: acetonitrile) | cellular metabolic activity (BV2 microglia [3]; 1 μM) | cellular metabolic activity (BV2 microglia [3]; 5 μM or higher) [%] | cytotoxicity (LDH release) (BV2 microglia [4]; 2 hour, 1 and 5 μM) | cytotoxicity (LDH release) (BV2 microglia [4]; 24 hours, 10 μM and 5 μM) | uptake efficiency (BV2 microglia [5]) [%] | solubility upon addition of pH solutions ([2]; final DMSO concentration 1%) | live cells positive for probe and MitoLite (primary mouse microglia [6]) | pKa ([7]; PBS buffer at varying pH, 1% (v/v) DMSO, probe 10 μM, room temperature) | emission maximum ([7]; excitation 480 nm, pH solutions of phosphate buffer, 1% DMSO) [nm] | pH at which high fluorescence is shown ([7]; pH buffer solutions) | absorption maximum ([7]; pH solutions of phosphate buffer, 1% DMSO) [nm] | localization of the probe within cell organelles (primary mouse microglia [8])
CCOC(=O)C1=C(C)C2=C(c3ccc(N(C)C)cc3)c3c(C)c(C(=O)OCC)c(C=Cc4ccc(O)c([N+](=O)[O-])c4)n3[B-](F)(F)[N+]2=C1C [Compound 6b, Diethyl (E)-10-(4-(Dimethylamino)phenyl)-5,5-difluoro-3-(4-hydroxy-3-nitrostyryl)-1,7,9-trimethyl-5H-414,514-dipyrrolo[1,2-c:2′,1′-f][1,3,2]diazaborinine-2,8-dicarboxylate] | less than 6 | sparingly soluble | soluble | – | – | – | – | – | – | – | – | – | – | – | –
CCOC(=O)C1=C(C)C2=C(c3ccc(NC(=O)C[P+](c4ccccc4)(c4ccccc4)c4ccccc4)cc3)c3c(C)c(C(=O)OCC)c(C)n3[B-](F)(F)[N+]2=C1C.[Br-] [MitoShine, (2-((4-(2,8-bis(ethoxycarbonyl)-5,5-difluoro-1,3,7,9-tetramethyl-5H-414,514-dipyrrolo[1,2-c:2′, 1′-f][1,3,2]diazaborinin-10-yl)phenyl)amino)-2-oxoethyl)triphenylphosphonium bromide] | – | – | – | high cellular metabolic activity | 10 | no cytotoxicity | around 20% | 30 | maintains its solubility | around 87% | 4.4 | 535 | 4 | 505 | co-localized with MitoLite; also recorded: colocalization of MitoShine in both mitochondrial as well as in lysosomal organelles
